Results reported in patent US20240025893A1, “PYRIMIDINE-AND NITROGEN-CONTAINING BICYCLIC COMPOUND” (Asahi Kasei Pharma Corporation, priority 2020, published 2024).

What was measured:
[1] = tested on: LPS-stimulated TNFα production in THP-1 cells; test: LPS-stimulated TNFα production inhibition test using human acute monocytic leukemia cell strain THP-1; format: cell-based; conditions: Homo sapiens, THP-1, 4 h, LPS 2.5 ng/mL, average values
Experimental: By the THP-1 assay, influence of a test compound on the TNFα production induced by LPS stimulation can be evaluated. The THP-1 cells (ATCC, Cat. TIB-202) were inoculated on a 96-well plate at a density of 1×10^5 cells/160 μL/well, a test compound was added in a volume of 20 μL, and the plate was incubated at 37° C. for 1 hour in a 5% CO2 incubator. Then, LPS in a volume of 20 μL (final concentration 2.5 ng/mL, Sigma, Cat. L2630) was added, and the plate was further incubated for 4 hours. After the incubation, the plate was centrifuged, and 100 μL of the supernatant was taken from each well, and used for evaluation of the amount of TNFα using HTRF (Cisbio, Cat. 62TNFPEB). In the measurement of the amount of TNFα, the supernatant was diluted twice with the medium, and then added to wells of a 384-well plate in a volume of 10 μL, then anti-TNFα-cryptate (5 μL), and anti-TNFα-XL665 (5 μL) were added, and the plate was left standing overnight. The fluorescence intensity ratio for the wavelengths of 620 and 665 nm (620 nm/665 nm) was measured with a microplate reader, and the amount of TNFα in the supernatant was calculated by using a calibration curve. The TNFα production suppression ratio observed with no addition of LPS was defined to be 100%, the TNFα production suppression ratio observed with no addition of the test compound was defined to be 0%, and IC50 of the test compound was calculated by using the 4-parameter logistic model of the data analysis software XLfit (ID Business Solutions Ltd.).

[2] = molecular target: human IRAK-4 (Homo sapiens (Human), UniProt Q9NWZ3); test: Measurement of human IRAK-4 inhibitory activity (TR-FRET, peptide substrate phosphorylation, 10 μM ATP); format: biochemical; conditions: 1 nM IRAK-4, 10 μM ATP, 23° C., 30 minutes; average values
Experimental: For the measurement of the activity of the human IRAK-4 (Invitrogen, Cat. PV3362), phosphorylation of the IRAK-4 peptide substrate (biotin-KKKKRFSFKKSFKC) by the enzyme in the presence of 10 μM ATP (Sigma-Aldrich, Cat. A7699) was measured by the TR-FRET method. The enzymatic reaction was performed in a reaction buffer containing 50 mM HEPES (pH 7.2), 1 mM DTT, 0.1 mM Na3VO4, 5 mM MgCl2, 1 mM MnCl2, and 0.1% bovine serum albumin. For the measurement of the IRAK-4 inhibitory activity, a test compound was added to the reaction buffer containing 1 nM IRAK-4, 0.5 μM peptide substrate, and 10 μM ATP, and the mixture was incubated at 23° C. for 30 minutes. Then, a detection solution containing an antibody labeled with europium cryptate (0.3 μg/mL, the antibody was prepared by using the IRAK-4 peptide substrate as the antigen), streptavidin-XL665 (2 μg/mL, CisBio, Cat. 610SAXLB), 50 mM HEPES (pH 7.2), 0.1% BSA, 120 mM KF, and 66.7 mM EDTA (all the concentrations of the reagents are final concentrations) was added to terminate the reaction, and then the mixture was further incubated at 23° C. for 60 minutes. Fluorescence intensity was measured at wavelengths of 665 nm and 620 nm with a microplate reader, and the enzymatic activity was calculated as the ratio of fluorescence intensities at 665 nm and 620 nm (665 nm/620 nm).

Chain of human IRAK-4 (Q9NWZ3 whole entry): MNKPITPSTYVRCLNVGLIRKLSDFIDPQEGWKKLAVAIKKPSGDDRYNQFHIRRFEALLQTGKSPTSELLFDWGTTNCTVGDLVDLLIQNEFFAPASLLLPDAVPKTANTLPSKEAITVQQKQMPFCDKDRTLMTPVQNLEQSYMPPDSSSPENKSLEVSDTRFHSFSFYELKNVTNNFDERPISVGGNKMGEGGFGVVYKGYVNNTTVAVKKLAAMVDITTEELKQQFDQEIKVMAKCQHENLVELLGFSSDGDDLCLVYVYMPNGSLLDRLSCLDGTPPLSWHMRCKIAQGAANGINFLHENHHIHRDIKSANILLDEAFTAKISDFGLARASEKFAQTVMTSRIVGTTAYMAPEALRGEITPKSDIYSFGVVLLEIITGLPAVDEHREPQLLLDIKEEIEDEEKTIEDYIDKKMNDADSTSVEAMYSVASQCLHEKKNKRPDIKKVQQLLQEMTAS

| Structure (SMILES) | IC50 [1] [nM] | IC50 [2] [nM] |
| --- | --- | --- |
| O=C(Nc1nc2ccc(-c3cnc(CO[C@H]4CCC[C@@H]4O)nc3)cc2s1)C1CC(NC2(C(F)(F)F)CC2)C1 (stereo partly shown) [b-02-57] | 119 | 2.62 |
| O=C(Nc1nc2ccc(-c3cnc(CO[C@H]4CCC[C@@H]4O)nc3)cc2s1)C1CC(N[C@@H]2C[C@H]2C(F)(F)F)C1 (stereo partly shown) [b-02-58] | 133 | 2.7 |
| N#CC1(NC2CC(C(=O)Nc3nc4ccc(-c5cnc(CO[C@H]6CCC[C@@H]6O)nc5)cc4s3)C2)CC1 (stereo partly shown) [b-02-59] | 105 | 1.51 |
| O=C(Nc1nc2ccc(-c3cnc(CO[C@H]4CCC[C@@H]4O)nc3)cc2s1)C1CC(NC23CC(C(F)(F)F)(C2)C3)C1 (stereo partly shown) [b-02-60] | 158 | 4.27 |
| O=C(Nc1nc2ccc(-c3cnc(CO[C@H]4CCC[C@@H]4O)nc3)cc2s1)C1CC(N2CCOC(C(F)(F)F)C2)C1 (stereo partly shown) [b-02-61] | 109 | 3.87 |
| O=C(Nc1nc2ccc(-c3cnc(CO[C@H]4CCC[C@@H]4O)nc3)cc2s1)C1CC(N2CC[C@@H](OC(F)F)C2)C1 (stereo partly shown) [b-02-62] | 141 | 1.38 |
| O=C(Nc1nc2ccc(-c3cnc(CO[C@H]4CCC[C@@H]4O)nc3)cc2s1)C1CC(N2CCOC3(CCC3)C2)C1 (stereo partly shown) [b-02-63] | 159 | 2.39 |
| Cn1cc(NC2CC(C(=O)Nc3nc4ccc(-c5cnc(CO[C@H]6CCC[C@@H]6O)nc5)cc4s3)C2)cn1 (stereo partly shown) [b-02-65] | 163 | 2.38 |
| O=C(Nc1nc2ccc(-c3cnc(CO[C@H]4CCC[C@@H]4O)nc3)cc2s1)C1CC(N2CCc3ccccc32)C1 (stereo partly shown) [b-02-66] | 227 | 5 |
| CC(C)C[C@H]1COCCN1C1CC(C(=O)Nc2nc3ccc(-c4cnc(CO[C@H]5CCC[C@@H]5O)nc4)cc3s2)C1 (stereo partly shown) [b-02-67] | 91 | 2.36 |
| O=C(Nc1nc2ccc(-c3cnc(CO[C@H]4CCC[C@@H]4O)nc3)cc2s1)C1CC(N2CCOCC2C2CC2)C1 (stereo partly shown) [b-02-68] | 160 | 2.18 |
| O=C(Nc1nc2ccc(-c3cnc(CO[C@H]4CCC[C@@H]4O)nc3)cc2s1)C1CC(N2CCO[C@@H]3CCC[C@@H]32)C1 (stereo partly shown) [b-02-69] | 80 | 1.81 |
| CC1(C)CN(C2CC(C(=O)Nc3nc4ccc(-c5cnc(CO[C@H]6CCC[C@@H]6O)nc5)cc4s3)C2)[C@@H]2CCC[C@H]2O1 (stereo partly shown) [b-02-70] | 90 | 2.94 |
| O=C(Nc1nc2ccc(-c3cnc(CO[C@H]4CCC[C@@H]4O)nc3)cc2s1)C1CC(N2CCOCC2CC2CC2)C1 (stereo partly shown) [b-02-71] | 105 | 2.36 |
| CN(CCO)C1CC(C(=O)Nc2nc3ccc(-c4cnc(CO[C@H]5CCC[C@@H]5O)nc4)cc3s2)C1 (stereo partly shown) [b-02-72] | 162 | 1.47 |
| O=C(Nc1nc2ccc(-c3cnc(CO[C@H]4CCC[C@@H]4O)nc3)cc2s1)C1CC(N2CCC3(CC2)COC3)C1 (stereo partly shown) [b-02-74] | 189 | 1.57 |
| O=C(Nc1nc2ccc(-c3cnc(CO[C@H]4CCC[C@@H]4O)nc3)cc2s1)C1CC(NC2C3CC2C3)C1 (stereo partly shown) [b-02-76] | 99 | 1.55 |
| O=C(Nc1nc2ccc(-c3cnc(CO[C@H]4CCC[C@@H]4O)nc3)cc2s1)C1CC(N2CCCCO2)C1 (stereo partly shown) [b-02-77] | 187 | 2.6 |
| O=C(Nc1nc2ccc(-c3cnc(CO[C@H]4CCC[C@@H]4O)nc3)cc2s1)C1CC(NC2(C(F)(F)F)COC2)C1 (stereo partly shown) [b-02-78] | 111 | 2.29 |

| Structure (SMILES) | IC50 [1] [nM] | IC50 [2] [nM] |
| --- | --- | --- |
| O=C(Nc1nc2ccc(-c3cnc(CO[C@H]4CCC[C@@H]4O)nc3)cc2s1)C1CC(NC2(C(F)(F)F)CCC2)C1 (stereo partly shown) [b-02-79] | 138 | 3.39 |
| O=C(Nc1nc2ccc(-c3cnc(CO[C@H]4CCC[C@@H]4O)nc3)cc2s1)C1CC(NC2(C(F)(F)F)CCCC2)C1 (stereo partly shown) [b-02-80] | 176 | 6.86 |
| O=C(Nc1nc2ccc(-c3cnc(CO[C@H]4CCC[C@@H]4O)nc3)cc2s1)C1CC(N2CCOC3(CCCC3)C2)C1 (stereo partly shown) [b-02-81] | 202 | 3.64 |
| CC1COC2(CCCC2)CN1C1CC(C(=O)Nc2nc3ccc(-c4cnc(CO[C@H]5CCC[C@@H]5O)nc4)cc3s2)C1 (stereo partly shown) [b-02-82] | 131 | 4.02 |
| O=C(Nc1nc2ccc(-c3cnc(CO[C@H]4CCC[C@@H]4O)nc3)cc2s1)C1CC(N2CCCCC2)C1 (stereo partly shown) [b-02-83] | 149 | 1.93 |
| C[C@@H]1CCCCN1C1CC(C(=O)Nc2nc3ccc(-c4cnc(CO[C@H]5CCC[C@@H]5O)nc4)cc3s2)C1 (stereo partly shown) [b-02-84] | 101 | 1.04 |
| CC(C)[C@@H]1[C@H](O)CCCN1C1CC(C(=O)Nc2nc3ccc(-c4cnc(CO[C@H]5CCC[C@@H]5O)nc4)cc3s2)C1 (stereo partly shown) [b-02-85] | 127 | 1.88 |
| O=C(Nc1nc2ccc(-c3cnc(CO[C@H]4CCC[C@@H]4O)nc3)cc2s1)C1CC(NCc2nccs2)C1 (stereo partly shown) [b-02-86] | 132 | 0.803 |
| O=C(Nc1nc2ccc(-c3cnc(CO[C@H]4CCC[C@@H]4O)nc3)cc2s1)C1CC(NCc2ccsn2)C1 (stereo partly shown) [b-02-87] | 182 | 0.95 |
| CN(C1CC(C(=O)Nc2nc3ccc(-c4cnc(CO[C@H]5CCC[C@@H]5O)nc4)cc3s2)C1)C12CC(C1)C2 (stereo partly drawn) [b-03-01, 3-(Bicyclo[1,1,1]pentan-1-yl(methyl)amino)-N-(6-(2-((((1S,2S)-2-hydroxycyclopentyl)oxy)methyl)pyrimidin-5-yl)benzo[d]thiazol-2-yl)cyclobutane-1-carboxamide] | 71 | 1.3 |
| O=C(Nc1nc2ccc(-c3cnc(CO[C@H]4CCC[C@@H]4O)nc3)cc2s1)C1CC(N(CCC(F)(F)F)C23CC(C2)C3)C1 (stereo partly shown) [b-03-02] | 145 | 11 |
| CN(C1CC1)C1CC(C(=O)Nc2nc3ccc(-c4cnc(CO[C@H]5CCC[C@@H]5O)nc4)cc3s2)C1 (stereo partly shown) [b-03-03] | 126 | 1.43 |
| CN(C1CC(C(=O)Nc2nc3ccc(-c4cnc(CO[C@H]5CCC[C@@H]5O)nc4)cc3s2)C1)C12CC(C)(C1)C2 (stereo partly shown) [b-03-04] | 117 | 1.67 |
| CN(C1CC(C(=O)Nc2nc3ccc(-c4cnc(CO[C@H]5CCC[C@@H]5O)nc4)cc3s2)C1)C1(C(F)F)CC1 (stereo partly shown) [b-03-05] | 108 | 2.93 |
| CN(C1CC(C(=O)Nc2nc3ccc(-c4cnc(CO[C@H]5CCC[C@@H]5O)nc4)cc3s2)C1)C12CC(C#N)(C1)C2 (stereo partly shown) [b-03-06] | 116 | 2.8 |
| CN(C1CC(C(=O)Nc2nc3ccc(-c4cnc(CO[C@H]5CCC[C@@H]5O)nc4)cc3s2)C1)[C@@H]1C[C@H]1C(F)(F)F (stereo partly shown) [b-03-07] | 183 | 5.26 |
| CN(C1CC(C(=O)Nc2nc3ccc(-c4cnc(CO[C@H]5CCC[C@@H]5O)nc4)cc3s2)C1)C1CC(F)(F)C1 (stereo partly shown) [b-03-08] | 127 | 2.68 |
| CN(c1cnn(C)c1)C1CC(C(=O)Nc2nc3ccc(-c4cnc(CO[C@H]5CCC[C@@H]5O)nc4)cc3s2)C1 (stereo partly shown) [b-03-09] | 143 | 2.21 |
| C[C@H]1CN(C(=O)OC(C)(C)C)CCN1[C@H]1C[C@@H](C(=O)Nc2nc3ccc(-c4cnc(CO[C@H]5CCC[C@@H]5O)nc4)cc3s2)C1 [b-04-01, tert-Butyl (S)-4-((1S,3R)-3-((6-(2-((((1S,2S)-2-hydroxycyclopentyl)oxy)methyl)pyrimidin-5-yl)benzo[d]thiazol-2-yl)carbamoyl)cyclobutyl)-3-methylpiperazine-1-carboxylate] | 51 | 5.49 |
